Earlier results on one compound are cited in patent US6825217B2, “Carbinols for the treatment of neuropathic dysfunction” (Endo Pharmaceuticals, Inc., priority 2001, dated 2004).

For the data set the following is noted: rat, in vivo; cited from earlier work.

Take `CSCC[C@@H]1NC(=O)[C@H](CC(C)C)NC(=O)[C@H](CCCNC(=N)N)NC(=O)[C@H](CO)NC(=O)[C@@H]2CSSC[C@@H]3NC(=O)[C@H](CO)NC(=O)CNC(=O)[C@H]([C@@H](C)O)NC(=O)[C@H](CSSC[C@H](N)C(=O)N[C@@H](CCCCN)C(=O)NCC(=O)N[C@@H](CCCCN)C(=O)NCC(=O)N[C@@H](C)C(=O)N[C@@H](CCCCN)C(=O)N2)NC(=O)[C@H](CSSC[C@@H](C(N)=O)NC(=O)[C@H](CCCCN)NC(=O)CNC(=O)[C@H](CO)NC(=O)[C@H](CCCNC(=N)N)NC3=O)NC(=O)[C@H](CC(=O)O)NC(=O)[C@H](Cc2ccc(O)cc2)NC1=O` [SNX-111]: the “duration of reduction of heat hyperalgesia and mechanical allodynia” value is recorded as “at least three hours”; the heat hyperalgesia result is recorded as “reduced”; the mechanical allodynia entry is “reduced”; the mechanical hyperalgesia entry is on record as “no effect”. Also, the “responses to sensory stimuli, thermal or mechanical” value is given as “no effect”.
